Measured values taken from ChEMBL document CHEMBL3297665, “Case Study of Small Molecules As Antimalarials: 2-Amino-1-phenylethanol (APE) Derivatives” (ACS Med Chem Lett, 2014).
Calls of active or inactive are those of the source. No cut-off for these calls is given here.

Legend:
Plasmodium falciparum = assay: Antiplasmodial activity against ring stage Plasmodium falciparum 3D7A infected in erythrocytes incubated for 24 hrs prior to [3H]hypoxanthine incorporation measured after 24 hrs; type: functional, organism-based
Plasmodium berghei = assay: Antiplasmodial activity against Plasmodium berghei infected in po dosed mouse assessed as reduction in parasitemia administered qd for 2 days relative to vehicle-treated control; type: functional
[1] = Inhibition of beta-hematin formation up to 100 uM
[2] = Inhibition of beta-hematin formation

Row | Structure (SMILES) | IC50 (Plasmodium falciparum; Plasmodium falciparum, 3D7A) | further results
1 | CCC(C)(C)N[C@@H](C)[C@@H](O)c1ccc(C(F)(F)F)cc1 |  | IC50 (Plasmodium falciparum): 1400 nM
2 | CCC(C)(C)N[C@@H](C)[C@@H](O)c1ccc(Cl)c(Cl)c1 |  | IC50 (Plasmodium falciparum): 500 nM
3 | C[C@H](NC(C)(C)C)[C@@H](O)c1ccc(Cl)c(C(F)(F)F)c1 |  | IC50 (Plasmodium falciparum): 600 nM
4 | CCC(C)(C)N[C@H](C)[C@H](O)c1ccc(C(F)(F)F)cc1 | 500 nM | 
5 | C[C@@H](NC(C)(C)C)[C@H](O)c1ccc(Cl)c(C(F)(F)F)c1 | 300 nM | 
6 | CCC(C)(C)N[C@H](C)[C@H](O)c1ccc(Cl)c(Cl)c1 | 400 nM | 
7 | CC(NC(C)(C)C)C(O)c1ccccc1 (racemic) | > 5000 nM | 
8 | C[C@H](NC(C)(C)C)[C@H](O)c1ccc(Cl)c(Cl)c1 (racemic) | > 5000 nM | 
9 | CC(C)(C)NCC(O)c1ccc(Cl)c(Cl)c1 (racemic) | > 5000 nM | 
10 | OC(CNCc1ccccc1)c1ccc(Cl)c(Cl)c1 (racemic) | 700 nM | 
11 | Cc1ccc2ccccc2c1CNCC(O)c1ccc(Cl)c(Cl)c1 (racemic) | > 5000 nM | 
12 | CCC(C)(C)N[C@@H](C)[C@@H](O)c1ccc(C(F)(F)F)cc1 (racemic) [listing 1 of 2 here] |  | IC50 (Plasmodium falciparum): 400 nM; inhibition (INH) (Plasmodium berghei): 64%
13 | CCC(C)(C)N[C@@H](C)[C@H](O)c1ccc(C(F)(F)F)cc1 (racemic) | > 5000 nM | 
14 | CCC(C)(C)N[C@@H](C)[C@@H](O)c1ccc(Cl)c(Cl)c1 (racemic) |  | IC50 (Plasmodium falciparum): 200 nM
15 | CCC(C)(C)N[C@@H](C)[C@H](O)c1ccc(Cl)c(Cl)c1 (racemic) | 3900 nM | 
16 | C[C@H](NC(C)(C)C)[C@@H](O)c1ccc(Cl)c(Cl)c1 (racemic) | 900 nM | 
17 | C[C@H](NC(C)(C)C)[C@@H](O)c1ccc(Cl)c(C(F)(F)F)c1 (racemic) [listing 1 of 2 here] | 500 nM | inhibition (INH) (Plasmodium berghei): 76%
18 | OC(CNC1CCCCCCC1)c1ccc(Cl)c(Cl)c1 (racemic) | 70 nM | 
19 | OC(CNC1CCCCCC1)c1ccc(Cl)c(Cl)c1 (racemic) | 160 nM | 
20 | CC(NC(C)(C)C)C(O)c1ccc(Cl)c(C(F)(F)F)c1 (racemic) | 4300 nM | 
21 | OC(CNC1CCCCC1)c1ccc(Cl)c(Cl)c1 (racemic) | 720 nM | 
22 | CCC(C)(C)N[C@@H](C)[C@@H](O)c1ccc(C(F)(F)F)cc1 (racemic) [listing 2 of 2 here] |  | inhibition [1]: inactive
23 | C[C@H](NC(C)(C)C)[C@@H](O)c1ccc(Cl)c(C(F)(F)F)c1 (racemic) [listing 2 of 2 here] |  | inhibition [1]: inactive
24 | C[C@H](N)[C@@H](O)c1ccc(C(F)(F)F)cc1 (relative stereo) | > 5000 nM | 
25 | CCC(C)(C)N(C)[C@@H](C)[C@@H](O)c1ccc(C(F)(F)F)cc1 (relative stereo) | > 5000 nM | 
26 | C[C@H](Nc1ccccc1)[C@@H](O)c1ccc(C(F)(F)F)cc1 (relative stereo) | 5000 nM | 
27 | C[C@H](NC1CCCCC1)[C@@H](O)c1ccc(C(F)(F)F)cc1 (relative stereo) | 5000 nM | 
28 | O[C@@H](c1cc(C(F)(F)F)nc2c(C(F)(F)F)cccc12)[C@H]1CCCCN1 (relative stereo) [(S,R)-MEFLOQUINE] |  | IC50 [2]: 12200 nM
